Data: article PMC6026066 (Nature, 2018)

Assays:
[1] = target: T1, HRV-C RdRp (rhinovirus C15, UniProt E5D8F2); assay: primer extension RNA synthesis, denaturing PAGE; type: biochemical
T1 sequence (E5D8F2 1694-2153): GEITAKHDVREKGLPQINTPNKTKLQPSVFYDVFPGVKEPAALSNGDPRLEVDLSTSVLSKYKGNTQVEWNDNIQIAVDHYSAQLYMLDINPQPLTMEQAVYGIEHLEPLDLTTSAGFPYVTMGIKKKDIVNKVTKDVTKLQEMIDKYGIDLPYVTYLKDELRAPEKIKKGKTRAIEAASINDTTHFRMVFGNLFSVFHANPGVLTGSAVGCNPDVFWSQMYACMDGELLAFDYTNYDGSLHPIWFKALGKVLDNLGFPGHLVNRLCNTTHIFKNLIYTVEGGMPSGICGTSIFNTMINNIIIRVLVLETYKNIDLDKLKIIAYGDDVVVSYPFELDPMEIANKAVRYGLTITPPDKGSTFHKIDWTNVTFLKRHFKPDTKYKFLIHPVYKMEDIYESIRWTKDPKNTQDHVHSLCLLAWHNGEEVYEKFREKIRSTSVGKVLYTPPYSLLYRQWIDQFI

[2] = target: T2, Hs CMPK2 (Homo sapiens, UniProt Q5EBM0); assay: kinase assay, CTP formation; type: biochemical; conditions: 1 mM CDP; phosphate donor ATP or GTP; 5 μM enzyme
T2 sequence (Q5EBM0 99-449): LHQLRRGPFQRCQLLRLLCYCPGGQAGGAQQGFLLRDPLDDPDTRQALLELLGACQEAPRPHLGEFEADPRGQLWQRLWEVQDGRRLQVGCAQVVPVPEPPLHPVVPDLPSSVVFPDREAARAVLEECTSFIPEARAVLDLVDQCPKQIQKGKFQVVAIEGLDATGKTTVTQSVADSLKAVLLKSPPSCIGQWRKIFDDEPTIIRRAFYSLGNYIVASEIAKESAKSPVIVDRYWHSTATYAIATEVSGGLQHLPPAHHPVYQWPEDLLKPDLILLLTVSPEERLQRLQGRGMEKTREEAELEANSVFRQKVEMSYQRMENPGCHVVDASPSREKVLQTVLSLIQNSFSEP

[3] = target: T2, Hs CMPK2; assay: kinase assay, UTP formation; type: biochemical; conditions: 1 mM UDP; phosphate donor ATP or GTP; 5 μM enzyme
[4] = target: PV RdRp (Human poliovirus 1 Mahoney, UniProt P03300); type: biochemical
PV RdRp, sequence (P03300 1749-2209 limits assumed): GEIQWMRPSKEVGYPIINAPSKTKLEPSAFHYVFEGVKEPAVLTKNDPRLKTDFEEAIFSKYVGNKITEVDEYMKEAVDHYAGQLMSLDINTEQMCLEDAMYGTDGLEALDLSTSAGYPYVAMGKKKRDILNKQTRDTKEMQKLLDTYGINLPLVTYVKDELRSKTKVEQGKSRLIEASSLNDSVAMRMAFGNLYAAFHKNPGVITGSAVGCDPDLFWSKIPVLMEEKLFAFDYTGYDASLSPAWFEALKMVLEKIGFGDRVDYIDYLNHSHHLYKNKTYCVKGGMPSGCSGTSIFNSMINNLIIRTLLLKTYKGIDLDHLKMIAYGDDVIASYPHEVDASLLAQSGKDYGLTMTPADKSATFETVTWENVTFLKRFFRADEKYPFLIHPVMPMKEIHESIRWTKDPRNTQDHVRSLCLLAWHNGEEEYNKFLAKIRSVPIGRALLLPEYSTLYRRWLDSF

[5] = target: T3, Hs viperin (Homo sapiens, UniProt Q8WXG1); assay: LC/MS of extracts of transfected HEK293T cells; type: cell-based; conditions: endogenous CTP and SAM; vector control
T3 sequence (Q8WXG1 1-361): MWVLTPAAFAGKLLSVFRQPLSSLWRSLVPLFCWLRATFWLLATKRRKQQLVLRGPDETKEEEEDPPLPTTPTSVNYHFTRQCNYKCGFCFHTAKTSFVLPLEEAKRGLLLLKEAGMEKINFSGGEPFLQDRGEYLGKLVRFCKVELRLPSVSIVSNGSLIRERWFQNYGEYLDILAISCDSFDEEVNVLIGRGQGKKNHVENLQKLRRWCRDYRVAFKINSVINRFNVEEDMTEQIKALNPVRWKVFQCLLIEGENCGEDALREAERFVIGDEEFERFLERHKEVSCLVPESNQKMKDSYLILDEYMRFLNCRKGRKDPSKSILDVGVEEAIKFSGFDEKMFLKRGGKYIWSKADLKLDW

[6] = target: DV RdRp (Dengue virus 2 Peru/IQT2913/1996, UniProt Q9WDA6); assay: primer extension RNA synthesis, denaturing PAGE; type: biochemical; conditions: 0.1 μM CTP; competes with CTP; incorporated as chain terminator
DV RdRp, sequence (Q9WDA6 2492-3391): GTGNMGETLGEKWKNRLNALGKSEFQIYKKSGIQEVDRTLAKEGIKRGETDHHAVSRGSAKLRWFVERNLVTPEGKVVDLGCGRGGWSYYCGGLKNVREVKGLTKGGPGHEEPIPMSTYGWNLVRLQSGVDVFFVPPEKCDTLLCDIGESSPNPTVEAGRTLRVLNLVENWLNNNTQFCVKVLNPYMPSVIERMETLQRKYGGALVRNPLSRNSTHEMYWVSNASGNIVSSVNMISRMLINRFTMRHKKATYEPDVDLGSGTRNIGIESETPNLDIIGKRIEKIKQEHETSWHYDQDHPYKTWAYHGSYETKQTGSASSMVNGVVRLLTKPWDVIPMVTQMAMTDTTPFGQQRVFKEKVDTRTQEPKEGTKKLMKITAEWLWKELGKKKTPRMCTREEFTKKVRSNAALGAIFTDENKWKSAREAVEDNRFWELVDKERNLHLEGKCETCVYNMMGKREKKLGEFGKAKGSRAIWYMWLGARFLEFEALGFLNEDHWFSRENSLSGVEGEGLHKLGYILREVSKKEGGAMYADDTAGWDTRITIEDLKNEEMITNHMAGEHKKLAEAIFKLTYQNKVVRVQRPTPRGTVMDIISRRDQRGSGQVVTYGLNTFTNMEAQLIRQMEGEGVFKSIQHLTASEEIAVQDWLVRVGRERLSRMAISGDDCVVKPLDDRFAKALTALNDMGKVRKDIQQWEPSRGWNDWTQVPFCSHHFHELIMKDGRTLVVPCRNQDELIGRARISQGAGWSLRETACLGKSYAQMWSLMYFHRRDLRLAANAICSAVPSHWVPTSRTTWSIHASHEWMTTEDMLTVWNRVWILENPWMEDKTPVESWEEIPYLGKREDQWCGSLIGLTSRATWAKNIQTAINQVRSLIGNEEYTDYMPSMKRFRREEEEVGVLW

[7] = target: WNV RdRp (West Nile virus strain NY-99, UniProt Q9Q6P4); assay: primer extension RNA synthesis, denaturing PAGE; type: biochemical
WNV RdRp, sequence (Q9Q6P4 2529-3433): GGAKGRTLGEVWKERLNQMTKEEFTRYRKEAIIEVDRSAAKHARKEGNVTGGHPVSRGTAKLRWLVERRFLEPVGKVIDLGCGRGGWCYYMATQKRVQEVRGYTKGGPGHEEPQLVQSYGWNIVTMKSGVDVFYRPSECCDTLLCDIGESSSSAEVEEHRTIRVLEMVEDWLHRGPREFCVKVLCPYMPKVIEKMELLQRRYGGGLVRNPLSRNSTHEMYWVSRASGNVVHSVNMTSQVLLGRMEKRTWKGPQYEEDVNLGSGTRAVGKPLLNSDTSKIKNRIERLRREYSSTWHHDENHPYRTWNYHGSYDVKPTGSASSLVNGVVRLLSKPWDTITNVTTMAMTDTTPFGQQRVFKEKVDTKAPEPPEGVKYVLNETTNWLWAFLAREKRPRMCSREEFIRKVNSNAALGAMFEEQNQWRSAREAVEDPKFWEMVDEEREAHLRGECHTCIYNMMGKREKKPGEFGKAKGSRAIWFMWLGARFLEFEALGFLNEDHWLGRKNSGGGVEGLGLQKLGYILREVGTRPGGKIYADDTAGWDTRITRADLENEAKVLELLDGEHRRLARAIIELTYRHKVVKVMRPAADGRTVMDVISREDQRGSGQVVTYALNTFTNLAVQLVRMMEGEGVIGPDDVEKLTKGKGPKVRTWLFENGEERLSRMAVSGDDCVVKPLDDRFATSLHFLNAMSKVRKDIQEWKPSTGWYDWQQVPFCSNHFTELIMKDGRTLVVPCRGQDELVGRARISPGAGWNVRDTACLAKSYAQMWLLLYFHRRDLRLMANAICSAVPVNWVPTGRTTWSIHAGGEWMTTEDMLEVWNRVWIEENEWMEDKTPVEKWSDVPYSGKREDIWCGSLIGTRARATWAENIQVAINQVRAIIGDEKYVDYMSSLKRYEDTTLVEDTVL

Compound: Nc1ccn([C@@H]2O[C@H](COP(=O)(O)OP(=O)(O)OP(=O)(O)O)C[C@H]2O)c(=O)n1 [3′-dCTP]
- IC50 [1]: 5 ± 1 µM

Compound: Nc1ccn([C@@H]2O[C@H](COP(=O)(O)OP(=O)(O)O)[C@@H](O)[C@H]2O)c(=O)n1 [CDP]
- kinase assay, CTP formation [2]: Hs CMPK2 exhibits significant preference for CDP and UDP as substrates

Compound: O=c1ccn([C@@H]2O[C@H](COP(=O)(O)OP(=O)(O)O)[C@@H](O)[C@H]2O)c(=O)[nH]1 [UDP]
- kinase assay, UTP formation [3]: Hs CMPK2 exhibits significant preference for CDP and UDP as substrates

Compound: Nc1ccn([C@@H]2OC(COP(=O)(O)OP(=O)(O)OP(=O)(O)O)=C[C@H]2O)c(=O)n1 [ddhCTP]
- primer extension RNA synthesis, denaturing PAGE [4]: both HRV-C and PV RdRp were poorly inhibited by ddhCTP
- LC/MS of extracts of transfected HEK293T cells [5]: HEK293T cells transfected with the Hs viperin plasmid exhibited considerable intracellular ddhCTP levels
- IC50 [6]: 60 ± 10 µM
- IC50 [7]: 20 ± 10 µM
- IC50 [1]: 900 ± 300 µM
